Source: ChEMBL document CHEMBL5303573, “Mapping human microbiome drug metabolism by gut bacteria and their genes” (Nature, 2019)

Tests used:
[1] = victivallis vadensis, 12 h, 2 µM
Description: The drug is tested on Victivallis vadensis strain: ATCC BAA-548 for biotransformation. The drug concentrations were measured before and after a 12-h incubation by liquid-chromatography-coupled mass spectrometry (LC–MS)

[2] = The drug is tested on Providencia stuartii strain: ATCC25827 for biotransformation. The drug concentrations were measured before and after a 12-h incubation by liquid-chromatography-coupled mass spectrometry (LC–MS); details: 2 µM
[3] = roseburia intestinalis, 12 h, 2 µM
Description: The drug is tested on Roseburia intestinalis strain: L1-82 for biotransformation. The drug concentrations were measured before and after a 12-h incubation by liquid-chromatography-coupled mass spectrometry (LC–MS)

[4] = The drug is tested on Blautia hansenii strain: DSM20583 for biotransformation. The drug concentrations were measured before and after a 12-h incubation by liquid-chromatography-coupled mass spectrometry (LC–MS); details: 2 µM
[5] = enterocloster bolteae, 12 h, 2 µM
Description: The drug is tested on Clostridium bolteae strain: ATCCBAA-613 for biotransformation. The drug concentrations were measured before and after a 12-h incubation by liquid-chromatography-coupled mass spectrometry (LC–MS)

[6] = The drug is tested on Bacteroides fragilis strain: HMW615 for biotransformation. The drug concentrations were measured before and after a 12-h incubation by liquid-chromatography-coupled mass spectrometry (LC–MS); details: 2 µM
[7] = parabacteroides johnsonii, 12 h, 2 µM
Description: The drug is tested on Parabacteroides johnsonii strain: DSM18315 for biotransformation. The drug concentrations were measured before and after a 12-h incubation by liquid-chromatography-coupled mass spectrometry (LC–MS)

[8] = The drug is tested on Dorea formicigenerans strain: ATCC27755 for biotransformation. The drug concentrations were measured before and after a 12-h incubation by liquid-chromatography-coupled mass spectrometry (LC–MS); details: 2 µM
[9] = The drug is tested on Subdoligranulum variabile strain: DSM15176 for biotransformation. The drug concentrations were measured before and after a 12-h incubation by liquid-chromatography-coupled mass spectrometry (LC–MS); details: 2 µM
[10] = The drug is tested on Eubacterium rectale strain: ATCC33656 for biotransformation. The drug concentrations were measured before and after a 12-h incubation by liquid-chromatography-coupled mass spectrometry (LC–MS); details: agathobacter rectalis, 2 µM
[11] = The drug is tested on Parabacteroides merdae strain: ATCC43184 for biotransformation. The drug concentrations were measured before and after a 12-h incubation by liquid-chromatography-coupled mass spectrometry (LC–MS); details: 2 µM
[12] = The drug is tested on Bacteroides vulgatus strain: ATCC8482 for biotransformation. The drug concentrations were measured before and after a 12-h incubation by liquid-chromatography-coupled mass spectrometry (LC–MS); details: phocaeicola vulgatus, 2 µM
[13] = The drug is tested on Ruminococcus gnavus strain: ATCC29149 for biotransformation. The drug concentrations were measured before and after a 12-h incubation by liquid-chromatography-coupled mass spectrometry (LC–MS); details: mediterraneibacter gnavus, 2 µM
[14] = bacteroides fragilis, 12 h, 2 µM
Description: The drug is tested on Bacteroides fragilis strain: NCTC 9343 for biotransformation. The drug concentrations were measured before and after a 12-h incubation by liquid-chromatography-coupled mass spectrometry (LC–MS)

[15] = segatella copri, 12 h, 2 µM
Description: The drug is tested on Prevotella copri strain: DSM18205 for biotransformation. The drug concentrations were measured before and after a 12-h incubation by liquid-chromatography-coupled mass spectrometry (LC–MS)

[16] = The drug is tested on Collinsella aerofaciens strain: ATCC25986 for biotransformation. The drug concentrations were measured before and after a 12-h incubation by liquid-chromatography-coupled mass spectrometry (LC–MS); details: 2 µM
[17] = The drug is tested on Ruminococcus lactaris strain: ATCC29176 for biotransformation. The drug concentrations were measured before and after a 12-h incubation by liquid-chromatography-coupled mass spectrometry (LC–MS); details: 2 µM
[18] = bacteroides fragilis, 12 h, 2 µM; remark: listed apart in the source
Description: The drug is tested on Bacteroides fragilis strain: 3397 (T10) for biotransformation. The drug concentrations were measured before and after a 12-h incubation by liquid-chromatography-coupled mass spectrometry (LC–MS)

[19] = The drug is tested on Clostridium sporogenes strain: ATCC15579 for biotransformation. The drug concentrations were measured before and after a 12-h incubation by liquid-chromatography-coupled mass spectrometry (LC–MS); details: 2 µM
[20] = The drug is tested on Alistipes indistinctus strain: DSM22520 for biotransformation. The drug concentrations were measured before and after a 12-h incubation by liquid-chromatography-coupled mass spectrometry (LC–MS); details: 2 µM

| SMILES | Bacterial Biotransformation [1] | Bacterial Biotransformation [2] | Bacterial Biotransformation [3] | Bacterial Biotransformation [5] | Bacterial Biotransformation [6] | Bacterial Biotransformation [7] | Bacterial Biotransformation [8] | Bacterial Biotransformation [9] | Bacterial Biotransformation [10] | Bacterial Biotransformation [11] | Bacterial Biotransformation [12] | Bacterial Biotransformation [13] | Bacterial Biotransformation [14] | Bacterial Biotransformation [15] | Bacterial Biotransformation [16] | Bacterial Biotransformation [17] | Bacterial Biotransformation [18] | Bacterial Biotransformation [20] | Bacterial Biotransformation [4] | Bacterial Biotransformation [19] |
| --- | --- | --- | --- | --- | --- | --- | --- | --- | --- | --- | --- | --- | --- | --- | --- | --- | --- | --- | --- | --- |
| CCOC(=O)[C@H](CCc1ccccc1)N[C@@H](C)C(=O)N1Cc2ccccc2C[C@H]1C(=O)O | Compound NOT metabolized | Compound metabolized | Compound NOT metabolized | Compound NOT metabolized | Compound metabolized | Compound metabolized | Compound NOT metabolized | Compound metabolized | Compound NOT metabolized | Compound NOT metabolized | Compound metabolized | Compound NOT metabolized | Compound metabolized | Compound metabolized | Compound NOT metabolized | Compound NOT metabolized | Compound metabolized | – | Compound metabolized | – |
| CN(C)C(=O)Oc1cc(OC(=O)N(C)C)cc(C(O)CNC(C)(C)C)c1 (stereo not given) [BAMBUTEROL] | Compound NOT metabolized | Compound NOT metabolized | Compound NOT metabolized | Compound NOT metabolized | Compound NOT metabolized | Compound NOT metabolized | Compound NOT metabolized | Compound NOT metabolized | Compound NOT metabolized | Compound NOT metabolized | Compound NOT metabolized | Compound NOT metabolized | Compound NOT metabolized | Compound NOT metabolized | Compound NOT metabolized | Compound NOT metabolized | Compound NOT metabolized | – | Compound NOT metabolized | Compound NOT metabolized |
| CC(C)(C)NCC(O)c1cc(Cl)c(N)c(Cl)c1 (stereo not given) [CLENBUTEROL] | Compound NOT metabolized | Compound NOT metabolized | Compound NOT metabolized | Compound NOT metabolized | – | Compound NOT metabolized | Compound NOT metabolized | Compound NOT metabolized | Compound NOT metabolized | Compound NOT metabolized | Compound NOT metabolized | Compound NOT metabolized | Compound NOT metabolized | Compound NOT metabolized | Compound NOT metabolized | Compound NOT metabolized | Compound NOT metabolized | Compound NOT metabolized | Compound NOT metabolized | Compound NOT metabolized |
| CN1CCN(C2=Nc3cc(Cl)ccc3Nc3ccccc32)CC1 [CLOZAPINE] | Compound NOT metabolized | Compound NOT metabolized | – | Compound NOT metabolized | Compound NOT metabolized | Compound NOT metabolized | Compound NOT metabolized | Compound NOT metabolized | Compound NOT metabolized | Compound NOT metabolized | Compound NOT metabolized | Compound NOT metabolized | Compound NOT metabolized | Compound NOT metabolized | Compound NOT metabolized | Compound NOT metabolized | Compound NOT metabolized | – | Compound NOT metabolized | – |

Further lines, with some results ahead:

| Bacterial Biotransformation [1] | Bacterial Biotransformation [2] | Bacterial Biotransformation [3] | Bacterial Biotransformation [5] | Bacterial Biotransformation [6] | Bacterial Biotransformation [7] | Bacterial Biotransformation [8] | Bacterial Biotransformation [9] | Bacterial Biotransformation [10] | Bacterial Biotransformation [11] | Bacterial Biotransformation [12] | Bacterial Biotransformation [13] | Bacterial Biotransformation [14] | Bacterial Biotransformation [15] | Bacterial Biotransformation [16] | Bacterial Biotransformation [17] | Bacterial Biotransformation [18] | Bacterial Biotransformation [20] | SMILES | Bacterial Biotransformation [4] | Bacterial Biotransformation [19] |
| --- | --- | --- | --- | --- | --- | --- | --- | --- | --- | --- | --- | --- | --- | --- | --- | --- | --- | --- | --- | --- |
| Compound NOT metabolized | – | Compound NOT metabolized | Compound NOT metabolized | Compound metabolized | Compound metabolized | Compound NOT metabolized | Compound NOT metabolized | Compound NOT metabolized | Compound metabolized | Compound metabolized | Compound NOT metabolized | Compound metabolized | Compound NOT metabolized | Compound NOT metabolized | Compound NOT metabolized | Compound metabolized | Compound NOT metabolized | CC[C@H](C)C(=O)O[C@H]1C[C@@H](C)C=C2C=C[C@H](C)[C@H](CC[C@@H]3C[C@@H](O)CC(=O)O3)[C@H]21 [LOVASTATIN] | – | – |
| Compound NOT metabolized | Compound NOT metabolized | Compound NOT metabolized | Compound NOT metabolized | Compound NOT metabolized | Compound NOT metabolized | Compound NOT metabolized | Compound NOT metabolized | Compound NOT metabolized | Compound NOT metabolized | Compound metabolized | Compound NOT metabolized | Compound metabolized | Compound NOT metabolized | Compound NOT metabolized | Compound NOT metabolized | Compound NOT metabolized | – | CC#C[C@]1(O)CC[C@H]2[C@@H]3CCC4=CC(=O)CCC4=C3[C@@H](c3ccc(N(C)C)cc3)C[C@@]21C [MIFEPRISTONE] | Compound metabolized | – |
| Compound NOT metabolized | Compound NOT metabolized | Compound metabolized | Compound NOT metabolized | Compound NOT metabolized | Compound metabolized | Compound metabolized | Compound metabolized | Compound metabolized | Compound NOT metabolized | Compound metabolized | Compound metabolized | Compound metabolized | Compound metabolized | Compound metabolized | Compound metabolized | Compound NOT metabolized | – | CNC(=C[N+](=O)[O-])NCCSCc1ccc(CN(C)C)o1 [RANITIDINE] | Compound metabolized | Compound NOT metabolized |
| Compound metabolized | Compound metabolized | Compound metabolized | Compound metabolized | Compound metabolized | Compound metabolized | Compound metabolized | Compound metabolized | Compound NOT metabolized | Compound metabolized | Compound metabolized | Compound NOT metabolized | Compound metabolized | Compound metabolized | Compound metabolized | Compound metabolized | Compound metabolized | Compound metabolized | CC(=O)OCC(=O)NCCCOc1cccc(CN2CCCCC2)c1 [ROXATIDINE ACETATE] | – | – |
